Bridge positions count the residues as written; N and C are the ends. Square brackets hold non-standard residues; d marks the D form. Peptide text beside a SMILES is read from it. * marks the point of attachment. ξ: configuration not given here. Phe(4-COOH) = N[C@@H](Cc1ccc(C(=O)O)cc1)C(=O)O; Bip = N[C@@H](Cc1ccc(-c2ccccc2)cc1)C(=O)O; Phe(3-Me) = Cc1cccc(C[C@H](N)C(=O)O)c1; Cyclopropanecarbonyl = O=C(C1CC1)*; 3Thi = N[C@@H](Cc1ccsc1)C(=O)O; Aad = N[C@@H](CCCC(=O)O)C(=O)O; Cha = N[C@@H](CC1CCCCC1)C(=O)O; Cit = NC(=O)NCCC[C@H](N)C(=O)O; Thr(3ξ) = CC(O)[C@H](N)C(=O)O; 12Ado = NCCCCCCCCCCCC(=O)O; Carboxymethyl = O=C(O)C*; Orn = NCCC[C@H](N)C(=O)O; Aun = NCCCCCCCCCCC(=O)O; Dab = NCC[C@H](N)C(=O)O; Dap = NC[C@H](N)C(=O)O; AEEA = NCCOCCOCC(=O)O; ξDab = NCCC(N)C(=O)O
Each molecule was assayed against T1, PD-1/PD-L1 interaction (PE-labeled human PD-L1-Ig binding to Jurkat cell line over-expressing human PD-1) (Homo sapiens, UniProt Q15116) (assay: Jurkat-PD-1 Cell Binding High-Content Screening Assay (CBA)). Details: Jurkat cell line over-expressing human PD-1; PE-labeled PD-L1-Ig 20 nM final; read-out: Jurkat hPD1-PDL1 IC50.
T1 construct: expressed in transfected cells; host or cells: Jurkat
T1 sequence (Q15116 25-288): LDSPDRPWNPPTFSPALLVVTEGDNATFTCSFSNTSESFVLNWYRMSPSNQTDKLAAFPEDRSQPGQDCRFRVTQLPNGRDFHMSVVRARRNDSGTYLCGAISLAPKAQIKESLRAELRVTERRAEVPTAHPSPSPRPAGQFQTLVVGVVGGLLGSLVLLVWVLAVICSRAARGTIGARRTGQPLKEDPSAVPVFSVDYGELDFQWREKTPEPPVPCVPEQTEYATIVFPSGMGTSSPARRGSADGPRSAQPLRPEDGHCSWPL
Format: cell-based
How it was run: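 Jurkat cells over-expressing human PD-1 (8×10^3 per well, DMEM/10% FCS) preincubated with compound 2 h at 37° C, then PE-labeled human PD-L1-Ig (20 nM final) added for 1 h. Cells fixed with paraformaldehyde, Hoechst-stained, and bound fluorescence quantified by high-content imaging.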

| Structure (SMILES) | IC50 [nM] |
| --- | --- |
| CC(C)C[C@@H]1NC(=O)[C@H](Cc2c[nH]c3ccccc23)NC(=O)[C@H](CC(=O)O)NC(=O)[C@H](Cc2ccc(C(=O)O)cc2)NC(=O)[C@H](Cc2ccc(OCC(=O)O)cc2)NC(=O)CSC[C@@H](C(=O)NCCOCCOCC(=O)NCCCCCCCCCCC(=O)O)NC(=O)[C@H](CCCNC(=N)N)NC(=O)[C@H](C(C)C)NC(=O)[C@H](CC2CCCCC2)NC(=O)[C@H](CCN)NC(=O)[C@@H](CC(C)C)NC(=O)[C@H](CCCN)NC(=O)[C@H](Cc2ccc(O)cc2)NC(=O)[C@H](Cc2ccc(-c3ccccc3)cc2)NC1=O [Compound 1242] ({CH2CO}-Y(Carboxymethyl)[Phe(4-COOH)]DWL[Bip]Y[Orn][dL][Dab][Cha]VRC[AEEA][Aun]-OH; thioether N-14) | 33.3 |
| Cc1cccc(C[C@@H]2NC(=O)[C@H](CC(=O)O)NC(=O)[C@H](Cc3ccc(OCC(=O)O)cc3)NC(=O)[C@H](CN)NC(=O)CSC[C@@H](C(=O)N[C@@H](CCCCN)C(=O)NCCCCCCCCCCC(=O)O)NC(=O)[C@H](CCCNC(=N)N)NC(=O)[C@H](C(C)C)NC(=O)[C@H](CC3CCCCC3)NC(=O)[C@H](CCN)NC(=O)[C@@H](CC(C)C)NC(=O)[C@H](CCCN)NC(=O)[C@H](C(C)C)NC(=O)[C@H](Cc3ccc(-c4ccccc4)cc3)NC(=O)[C@H](C(C)C)NC2=O)c1 [Compound 2536] ({CH2CO}-[Dap]Y(Carboxymethyl)D[Phe(3-Me)]V[Bip]V[Orn][dL][Dab][Cha]VRCK[Aun]-OH; thioether N-14) | 9.5 |
| Cc1cccc(C[C@@H]2NC(=O)[C@H](CC(=O)O)NC(=O)[C@H](Cc3ccc(OCC(=O)O)cc3)NC(=O)[C@H](CN)NC(=O)CSC[C@@H](C(=O)N[C@@H](CCN)C(=O)NCCCCCCCCCCC(=O)O)NC(=O)[C@H]([C@@H](C)O)NC(=O)[C@H](C(C)C)NC(=O)[C@H](CC3CCCCC3)NC(=O)[C@H](CCN)NC(=O)[C@@H](CC(C)C)NC(=O)[C@H](CCCN)NC(=O)[C@H](Cc3ccc(OCC(=O)O)cc3)NC(=O)[C@H](Cc3ccc(-c4ccccc4)cc3)NC(=O)[C@H](C(C)C)NC2=O)c1 [Compound 2731] ({CH2CO}-[Dap]Y(Carboxymethyl)D[Phe(3-Me)]V[Bip]Y(Carboxymethyl)[Orn][dL][Dab][Cha]VTC[Dab][Aun]-OH; thioether N-14) | 18.6 |
| Cc1cccc(C[C@@H]2NC(=O)[C@H](CC(=O)O)NC(=O)[C@H](Cc3ccc(OCC(=O)O)cc3)NC(=O)[C@H](C(C)O)NC(=O)CSC[C@@H](C(=O)NC(CCN)C(=O)NCCCCCCCCCCC(=O)O)NC(=O)[C@H](C(C)O)NC(=O)[C@H](C(C)C)NC(=O)[C@H](CC3CCCCC3)NC(=O)[C@H](Cc3cnc[nH]3)NC(=O)[C@@H](CC(C)C)NC(=O)[C@H](CCCN)NC(=O)[C@H](CCCNC(N)=O)NC(=O)[C@H](Cc3ccc(-c4ccccc4)cc3)NC(=O)[C@H](C(C)C)NC2=O)c1 (stereo partly drawn) [Compound 3503] ({CH2CO}-[Thr(3ξ)]Y(Carboxymethyl)D[Phe(3-Me)]V[Bip][Cit][Orn][dL]H[Cha]V[Thr(3ξ)]C[ξDab][Aun]-OH; thioether N-14) | 38.2 |
| Cc1cccc(C[C@@H]2NC(=O)[C@H](CC(=O)O)NC(=O)[C@H](Cc3ccc(OCC(=O)O)cc3)NC(=O)[C@H](CCCNC(=O)C3CC3)NC(=O)CSC[C@@H](C(=O)N[C@@H](CCCN)C(=O)N[C@@H](CO)C(=O)NCCCCCCCCCCCC(=O)O)NC(=O)[C@H](C(C)O)NC(=O)[C@H](C(C)C)NC(=O)[C@H](CC3CCCCC3)NC(=O)[C@H](CCN)NC(=O)[C@@H](CC(C)C)NC(=O)[C@H](CCCN)NC(=O)[C@H](CCCNC(=N)N)NC(=O)[C@H](Cc3ccc(-c4ccccc4)cc3)NC(=O)[C@H](C(C)C)NC2=O)c1 (stereo partly drawn) [Compound 3572] ({CH2CO}-[Orn](Cyclopropanecarbonyl)Y(Carboxymethyl)D[Phe(3-Me)]V[Bip]R[Orn][dL][Dab][Cha]V[Thr(3ξ)]C[Orn]S[12Ado]-OH; thioether N-14) | 26.1 |
| CC(C)C[C@H]1NC(=O)[C@H](CCCCN)NC(=O)[C@H](C(C)C)NC(=O)[C@H](Cc2ccc(-c3ccccc3)cc2)NC(=O)[C@H](C(C)C)NC(=O)[C@H](Cc2c[nH]c3ccccc23)NC(=O)[C@H](CC(=O)O)NC(=O)[C@H](Cc2ccc(OCC(=O)O)cc2)NC(=O)[C@H](Cc2ccsc2)NC(=O)CSC[C@@H](C(=O)NCCOCCOCC(=O)N[C@@H](CCCN)C(=O)NCCCCCCCCCCC(=O)O)NC(=O)[C@H](C(C)O)NC(=O)[C@H](C(C)C)NC(=O)[C@H](CC2CCCCC2)NC(=O)[C@H](CCN)NC1=O (stereo partly drawn) [Compound 3167] ({CH2CO}-[3Thi]Y(Carboxymethyl)DWV[Bip]VK[dL][Dab][Cha]V[Thr(3ξ)]C[AEEA][Orn][Aun]-OH; thioether N-14) | 59 |

Other lines, results leading:

| IC50 [nM] | Structure (SMILES) |
| --- | --- |
| 12.5 | Cc1cccc(C[C@@H]2NC(=O)[C@H](CC(=O)O)NC(=O)[C@H](Cc3ccc(OCC(=O)O)cc3)NC(=O)[C@H](CN)NC(=O)CSC[C@@H](C(=O)N[C@@H](CCN)C(=O)NCCCCCCCCCCC(=O)O)NC(=O)[C@H](CCCC(N)=O)NC(=O)[C@H](C(C)C)NC(=O)[C@H](CC3CCCCC3)NC(=O)[C@H](CCN)NC(=O)[C@@H](CC(C)C)NC(=O)[C@H](CCCN)NC(=O)[C@H](Cc3ccc(O)cc3)NC(=O)[C@H](Cc3ccc(-c4ccccc4)cc3)NC(=O)[C@H](C(C)C)NC2=O)c1 [Compound 2751] ({CH2CO}-[Dap]Y(Carboxymethyl)D[Phe(3-Me)]V[Bip]Y[Orn][dL][Dab][Cha]V[Aad](NH2)C[Dab][Aun]-OH; thioether N-14) |
| 4.9 | Cc1cccc(C[C@@H]2NC(=O)[C@H](CC(=O)O)NC(=O)[C@H](Cc3ccc(OCC(=O)O)cc3)NC(=O)[C@H](CC(N)=O)NC(=O)CSC[C@@H](C(=O)N[C@@H](CCN)C(=O)NCCOCCOCC(=O)NCCCCCCCCCCC(=O)O)NC(=O)[C@H](CCCN)NC(=O)[C@H](C(C)C)NC(=O)[C@H](CC3CCCCC3)NC(=O)[C@H](CCN)NC(=O)[C@@H](CC(C)C)NC(=O)[C@H](CCCN)NC(=O)[C@H](Cc3ccc(O)cc3)NC(=O)[C@H](Cc3ccc(-c4ccccc4)cc3)NC(=O)[C@H](C(C)C)NC2=O)c1 [Compound 2697] ({CH2CO}-NY(Carboxymethyl)D[Phe(3-Me)]V[Bip]Y[Orn][dL][Dab][Cha]V[Orn]C[Dab][AEEA][Aun]-OH; thioether N-14) |
| 9.1 | Cc1cccc(C[C@@H]2NC(=O)[C@H](CC(=O)O)NC(=O)[C@H](Cc3ccc(OCC(=O)O)cc3)NC(=O)[C@H](CN)NC(=O)CSC[C@@H](C(=O)N[C@@H](CCN)C(=O)NCCCCCCCCCCC(=O)O)NC(=O)[C@H](CCCC(N)=O)NC(=O)[C@H](C(C)C)NC(=O)[C@H](CC3CCCCC3)NC(=O)[C@H](CCN)NC(=O)[C@@H](CC(C)C)NC(=O)[C@H](CCCN)NC(=O)[C@H](Cc3ccc(O)cc3)NC(=O)[C@H](Cc3ccc(-c4ccccc4)cc3)NC(=O)[C@H](Cc3ccc(O)cc3)NC2=O)c1 [Compound 2750] ({CH2CO}-[Dap]Y(Carboxymethyl)D[Phe(3-Me)]Y[Bip]Y[Orn][dL][Dab][Cha]V[Aad](NH2)C[Dab][Aun]-OH; thioether N-14) |
| 9.5 | Cc1cccc(C[C@@H]2NC(=O)[C@H](CC(=O)O)NC(=O)[C@H](Cc3ccc(OCC(=O)O)cc3)NC(=O)[C@H](CN)NC(=O)CSC[C@@H](C(=O)N[C@@H](CCN)C(=O)NCCOCCOCC(=O)NCCCCCCCCCCC(=O)O)NC(=O)[C@H](CCCN)NC(=O)[C@H](C(C)C)NC(=O)[C@H](CC3CCCCC3)NC(=O)[C@H](CCN)NC(=O)[C@@H](CC(C)C)NC(=O)[C@H](CCCN)NC(=O)[C@H](C(C)C)NC(=O)[C@H](Cc3ccc(-c4ccccc4)cc3)NC(=O)[C@H](Cc3ccc(O)cc3)NC2=O)c1 [Compound 2582] ({CH2CO}-[Dap]Y(Carboxymethyl)D[Phe(3-Me)]Y[Bip]V[Orn][dL][Dab][Cha]V[Orn]C[Dab][AEEA][Aun]-OH; thioether N-14) |
